Assay results: patent US8329687B2, “Pyridooxazepine derivative and use thereof” (Takeda Pharmaceutical Company Limited, priority 2007, dated 2012)
Structures can show the parent of a compound that is named as a salt.

target: serotonin 5-HT2C receptor (VSV type isoform) stably expressed in CHO cell (Homo sapiens, UniProt P28335, I156V/I160V/N158S); experiment: cell-based; assay type: cell-based; settings: 1 μM
Sequence (P28335 33-458 I156V/N158S/I160V limits assumed): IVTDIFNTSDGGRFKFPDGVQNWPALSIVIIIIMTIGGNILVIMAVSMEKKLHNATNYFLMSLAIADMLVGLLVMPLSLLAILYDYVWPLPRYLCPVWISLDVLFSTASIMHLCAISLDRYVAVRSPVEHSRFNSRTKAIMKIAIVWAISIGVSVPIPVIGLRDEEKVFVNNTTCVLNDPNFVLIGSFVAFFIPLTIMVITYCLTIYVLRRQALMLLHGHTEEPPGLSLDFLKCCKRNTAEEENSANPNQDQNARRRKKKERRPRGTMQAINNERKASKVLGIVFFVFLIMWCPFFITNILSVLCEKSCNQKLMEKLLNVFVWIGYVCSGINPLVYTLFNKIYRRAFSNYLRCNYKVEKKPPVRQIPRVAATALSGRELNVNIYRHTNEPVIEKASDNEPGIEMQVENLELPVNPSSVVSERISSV

Structure (SMILES) | ratio relative to maximum response by 5-HT (1 μM)
CC(Oc1ccc2c(n1)OCCNC2)C1CC1.CC(Oc1ccc2c(n1)OCCNC2)C1CC1.O=C(O)CCC(=O)O (single isomer, unassigned; (+)) [Example 36, (+)-8-(1-cyclopropylethoxy)-2,3,4,5-tetrahydropyrido[3,2-f][1,4]oxazepine 0.5 succinate] | 104.7
CC(Oc1ccc2c(n1)OCCNC2)C1CC1.CC(Oc1ccc2c(n1)OCCNC2)C1CC1.O=C(O)CCC(=O)O (centres unmarked) [Example 16, 8-(1-cyclopropylethoxy)-2,3,4,5-tetrahydropyrido[3,2-f][1,4]oxazepine 0.5 succinate] | 98.8
CC(Oc1ccc2c(n1)OCCNC2)C1CC1.CC(Oc1ccc2c(n1)OCCNC2)C1CC1.O=C(O)CCC(=O)O (single isomer, unassigned; (-)) [Example 35, (−)-8-(1-cyclopropylethoxy)-2,3,4,5-tetrahydropyrido[3,2-f][1,4]oxazepine 0.5 succinate] | 93.7
CC(C)Oc1ccc2c(n1)OCCNC2.CC(C)Oc1ccc2c(n1)OCCNC2.O=C(O)CCC(=O)O [Example 5, 8-isopropoxy-2,3,4,5-tetrahydropyrido[3,2-f][1,4]oxazepine 0.5 succinate] | 97.7

same assay, conditions: CHO; read-out: ratio relative to maximum response by 5-HT (1 μM)

Structure (SMILES) | Emax
CC[C@@H](C)Oc1ccc2c(n1)OCCNC2 [Example 27, 8-{[(1R)-1-methylpropyl]oxy}-2,3,4,5-tetrahydropyrido[3,2-f][1,4]oxazepine hydrochloride] | 99.8%
CCOc1ccc2c(n1)OCCNC2 [Example 13, 8-ethoxy-2,3,4,5-tetrahydropyrido[3,2-f][1,4]oxazepine hydrochloride] | 97.4%
CC(C)(C)Oc1ccc2c(n1)OCCNC2 [Example 1, 8-tert-butoxy-2,3,4,5-tetrahydropyrido[3,2-f][1,4]oxazepine] | 98.6%
CC[C@H](C)Oc1ccc2c(n1)OCCNC2 [Example 26, 8-{[(1S)-1-methylpropyl]oxy}-2,3,4,5-tetrahydropyrido[3,2-f][1,4]oxazepine hydrochloride] | 97.6%
CC(C)[C@@H](C)Oc1ccc2c(n1)OCCNC2 [Example 25, 8-{[(1R)-1,2-dimethylpropyl]oxy}-2,3,4,5-tetrahydropyrido[3,2-f][1,4]oxazepine hydrochloride] | 98.6%
c1ccc(Oc2ccc3c(n2)OCCNC3)cc1 [Example 28, 8-phenoxy-2,3,4,5-tetrahydropyrido[3,2-f][1,4]oxazepine hydrochloride] | 91.2%
CC(C)[C@H](C)Oc1ccc2c(n1)OCCNC2 [Example 24, 8-{[(1S)-1,2-dimethylpropyl]oxy}-2,3,4,5-tetrahydropyrido[3,2-f][1,4]oxazepine hydrochloride] | 94.7%
FC1(F)CCC(Oc2ccc3c(n2)OCCNC3)CC1 [Example 23, 8-[(4,4-difluorocyclohexyl)oxy]-2,3,4,5-tetrahydropyrido[3,2-f][1,4]oxazepine hydrochloride] | 83.8%
CC(C)Sc1ccc2c(n1)OCCNC2 [Example 37, 8-(isopropylthio)-2,3,4,5-tetrahydropyrido[3,2-f][1,4]oxazepine hydrochloride] | 94.5%
CC(C)COc1ccc2c(n1)OCCNC2 [Example 3, 8-isobutoxy-2,3,4,5-tetrahydropyrido[3,2-f][1,4]oxazepine hydrochloride] | 101%
